Reference: ChEMBL document CHEMBL1146065, “Structure-based optimization of azole antifungal agents by CoMFA, CoMSIA, and molecular docking” (2006)
In brackets after ≈: the same amount, converted by molar mass.

Assays:
[1] = system: Sporothrix schenckii; test: Antifungal activity against Sporothrix schenckii; type: functional
[2] = system: Epidermophyton floccosum; test: Antifungal activity against Epidermophyton floccosum; type: functional
[3] = system: Nannizzia gypsea; test: Antifungal activity against Microsporum gypseum; type: functional
[4] = system: Candida parapsilosis; test: Antifungal activity against Candida parapsilosis; type: functional; details: Lodderomyces parapsilosis
[5] = system: Trichophyton rubrum; test: Antifungal activity against Trichophyton rubrum; type: functional
[6] = system: Microsporum; test: Antifungal activity against Microsporum lanosum; type: functional
[7] = system: Aspergillus fumigatus; test: Antifungal activity against Aspergillus fumigatus; type: functional
[8] = system: Candida tropicalis; test: Antifungal activity against Candida tropicalis; type: functional
[9] = system: Fonsecaea pedrosoi; test: Antifungal activity against Fonsecaea pedrosoi; type: functional
[10] = system: Trichophyton violaceum; test: Antifungal activity against Trichophyton violaceum; type: functional
[11] = system: Cryptococcus neoformans; test: Antifungal activity against Cryptococcus neoformans; type: functional
[12] = system: Trichophyton benhamiae; test: Antifungal activity against Trichophyton mentagrophytes; type: functional, Arthroderma benhamiae
[13] = system: Candida albicans; test: Antifungal activity against Candida albicans; type: functional

Structure (SMILES) | MIC80 [1] [µg/mL] | MIC80 [2] [µg/mL] | MIC80 [3] [µg/mL] | MIC80 [4] [µg/mL] | MIC80 [5] [µg/mL] | MIC80 [6] [µg/mL] | MIC80 [7] [µg/mL] | MIC80 [8] [µg/mL] | MIC80 [9] [µg/mL] | MIC80 [10] [µg/mL] | MIC80 [11] [µg/mL] | MIC80 [12] [µg/mL] | MIC80 [13] [µg/mL]
CN(C/C=C/C#CC(C)(C)C)Cc1cccc2ccccc12 [TERBINAFINE] | 2 (≈ 6.86 µM) | > 32 | 0.5 (≈ 1.72 µM) | 16 (≈ 54.9 µM) | ≤ 0.125 | 32 (≈ 110 µM) | 0.25 (≈ 0.858 µM) | 16 (≈ 54.9 µM) | ≤ 0.125 | 4 (≈ 13.7 µM) | 4 (≈ 13.7 µM) | > 32 | 16 (≈ 54.9 µM)
CN(Cc1ccc(Cl)c(Cl)c1)CC(O)(Cn1cncn1)c1ccc(F)cc1F (stereo unspecified) | 32 (≈ 74.9 µM) | < 0.0625 | 16 (≈ 37.4 µM) | 1 (≈ 2.34 µM) | ≤ 0.125 | 8 (≈ 18.7 µM) | 4 (≈ 9.36 µM) | ≤ 0.125 | ≤ 0.125 | 4 (≈ 9.36 µM) | ≤ 0.125 | < 0.0625 | 0.016 (≈ 0.0374 µM)
CC(=O)N1CCN(c2ccc(OCC3COC(Cn4ccnc4)(c4ccc(Cl)cc4Cl)O3)cc2)CC1 (stereo unspecified) [KETOCONAZOLE] | 0.5 (≈ 0.941 µM) | < 0.0625 | < 0.0625 | ≤ 0.125 | ≤ 0.125 | < 0.0625 | 1 (≈ 1.88 µM) | ≤ 0.125 | ≤ 0.125 | 0.25 (≈ 0.47 µM) | ≤ 0.125 | < 0.0625 | 0.0625 (≈ 0.118 µM)
CN(Cc1ccc(NC(=O)c2ccccc2)cc1)CC(O)(Cn1cncn1)c1ccc(F)cc1F (stereo unspecified) | – | – | – | 0.0625 (≈ 0.131 µM) | 0.5 (≈ 1.05 µM) | 4 (≈ 8.38 µM) | 32 (≈ 67 µM) | 0.125 (≈ 0.262 µM) | 1 (≈ 2.09 µM) | – | 1 (≈ 2.09 µM) | – | 0.031 (≈ 0.0649 µM)
OC(Cn1cncn1)(Cn1cncn1)c1ccc(F)cc1F [FLUCONAZOLE] | > 64 | > 32 | 8 (≈ 26.1 µM) | 0.5 (≈ 1.63 µM) | 8 (≈ 26.1 µM) | > 32 | 32 (≈ 104 µM) | 0.5 (≈ 1.63 µM) | 64 (≈ 209 µM) | 32 (≈ 104 µM) | 16 (≈ 52.2 µM) | > 32 | 0.25 (≈ 0.816 µM)
CN(Cc1ccc(F)cc1Br)CC(O)(Cn1cncn1)c1ccc(F)cc1F (stereo unspecified) | 64 (≈ 141 µM) | < 0.0625 | 32 (≈ 70.3 µM) | 0.25 (≈ 0.549 µM) | 1 (≈ 2.2 µM) | 4 (≈ 8.79 µM) | 4 (≈ 8.79 µM) | ≤ 0.125 | 0.25 (≈ 0.549 µM) | 2 (≈ 4.39 µM) | ≤ 0.125 | 0.125 (≈ 0.275 µM) | 0.032 (≈ 0.0703 µM)
CN(Cc1ccccc1Cl)CC(O)(Cn1cncn1)c1ccc(F)cc1F (stereo unspecified) | 32 (≈ 81.5 µM) | < 0.0625 | 4 (≈ 10.2 µM) | 0.25 (≈ 0.636 µM) | ≤ 0.125 | 0.25 (≈ 0.636 µM) | 8 (≈ 20.4 µM) | ≤ 0.125 | 0.25 (≈ 0.636 µM) | 0.5 (≈ 1.27 µM) | ≤ 0.125 | < 0.0625 | 0.032 (≈ 0.0815 µM)
CN(Cc1ccc(I)cc1)CC(O)(Cn1cncn1)c1ccc(F)cc1F (stereo unspecified) | 16 (≈ 33 µM) | < 0.0625 | < 0.0625 | 0.25 (≈ 0.516 µM) | ≤ 0.125 | < 0.0625 | ≤ 0.125 | ≤ 0.125 | ≤ 0.125 | < 0.0625 | ≤ 0.125 | < 0.0625 | 0.032 (≈ 0.0661 µM)
Cc1ccc(C(=O)Nc2ccc(CN(C)CC(O)(Cn3cncn3)c3ccc(F)cc3F)cc2)cc1 (stereo unspecified) | – | – | – | 0.031 (≈ 0.0631 µM) | ≤ 0.125 | 2 (≈ 4.07 µM) | 32 (≈ 65.1 µM) | 0.016 (≈ 0.0326 µM) | 0.25 (≈ 0.509 µM) | – | 0.5 (≈ 1.02 µM) | – | 0.016 (≈ 0.0326 µM)
Cc1cccc(C(=O)Nc2ccc(CN(C)CC(O)(Cn3cncn3)c3ccc(F)cc3F)cc2)c1 (stereo unspecified) | – | – | – | 0.0625 (≈ 0.127 µM) | ≤ 0.125 | 0.25 (≈ 0.509 µM) | 16 (≈ 32.6 µM) | 1 (≈ 2.03 µM) | 0.5 (≈ 1.02 µM) | – | 1 (≈ 2.03 µM) | – | 0.031 (≈ 0.0631 µM)
CN(Cc1ccc(NC(=O)c2ccc(I)cc2)cc1)CC(O)(Cn1cncn1)c1ccc(F)cc1F (stereo unspecified) | – | – | – | 0.5 (≈ 0.829 µM) | ≤ 0.125 | ≤ 0.125 | > 64 | 0.25 (≈ 0.414 µM) | ≤ 0.125 | – | ≤ 0.031 | – | 0.0625 (≈ 0.104 µM)
CN(Cc1ccc(Br)cc1F)CC(O)(Cn1cncn1)c1ccc(F)cc1F (stereo unspecified) | 64 (≈ 141 µM) | < 0.0625 | 32 (≈ 70.3 µM) | ≤ 0.125 | 0.25 (≈ 0.549 µM) | 1 (≈ 2.2 µM) | 0.5 (≈ 1.1 µM) | ≤ 0.125 | ≤ 0.125 | 2 (≈ 4.39 µM) | ≤ 0.125 | < 0.0625 | 0.032 (≈ 0.0703 µM)
CN(Cc1ccccc1F)CC(O)(Cn1cncn1)c1ccc(F)cc1F (stereo unspecified) | 64 (≈ 170 µM) | < 0.0625 | 8 (≈ 21.3 µM) | ≤ 0.125 | 32 (≈ 85 µM) | 0.5 (≈ 1.33 µM) | 8 (≈ 21.3 µM) | 0.25 (≈ 0.664 µM) | 1 (≈ 2.66 µM) | 2 (≈ 5.31 µM) | 0.5 (≈ 1.33 µM) | < 0.0625 | 0.5 (≈ 1.33 µM)
CN(Cc1ccc(NC(=O)c2ccccc2Cl)cc1)CC(O)(Cn1cncn1)c1ccc(F)cc1F (stereo unspecified) | – | – | – | 0.25 (≈ 0.488 µM) | 4 (≈ 7.81 µM) | 2 (≈ 3.91 µM) | 32 (≈ 62.5 µM) | 0.5 (≈ 0.977 µM) | 2 (≈ 3.91 µM) | – | 2 (≈ 3.91 µM) | – | 0.0625 (≈ 0.122 µM)
CN(Cc1cc(F)ccc1Br)CC(O)(Cn1cncn1)c1ccc(F)cc1F (stereo unspecified) | 64 (≈ 141 µM) | < 0.0625 | 32 (≈ 70.3 µM) | ≤ 0.125 | 0.5 (≈ 1.1 µM) | 8 (≈ 17.6 µM) | 4 (≈ 8.79 µM) | ≤ 0.125 | 2 (≈ 4.39 µM) | 4 (≈ 8.79 µM) | ≤ 0.125 | 0.5 (≈ 1.1 µM) | 0.032 (≈ 0.0703 µM)
CN(Cc1ccc(NC(=O)c2ccc(Cl)cc2)cc1)CC(O)(Cn1cncn1)c1ccc(F)cc1F (stereo unspecified) | – | – | – | 0.031 (≈ 0.0606 µM) | ≤ 0.125 | 8 (≈ 15.6 µM) | 32 (≈ 62.5 µM) | 0.016 (≈ 0.0313 µM) | ≤ 0.125 | – | 0.25 (≈ 0.488 µM) | – | 0.016 (≈ 0.0313 µM)
CN(Cc1cccc(I)c1)CC(O)(Cn1cncn1)c1ccc(F)cc1F (stereo unspecified) | 64 (≈ 132 µM) | < 0.0625 | 0.125 (≈ 0.258 µM) | 1 (≈ 2.06 µM) | ≤ 0.125 | < 0.0625 | 8 (≈ 16.5 µM) | ≤ 0.125 | ≤ 0.125 | < 0.0625 | ≤ 0.125 | < 0.0625 | 1 (≈ 2.06 µM)
